The record followed here is ChEMBL document CHEMBL4321785, “Challenges and Opportunities for Therapeutics Targeting the Voltage-Gated Sodium Channel Isoform NaV1.7” (J Med Chem, 2019).

A short description of data set [1]: Ratio of unbound plasma concentration in mouse model of formalin-induced pain to Kd for binding affinity to mouse Nav1.7 by radioligand binding assay. The data set is classed as ADME. The following applies: in vivo.
Data set [2] is filed under the species Homo sapiens. Kind of data set: Selectivity ratio of Kd for binding affinity to human recombinant Nav1.2 by radioligand binding assay to Kd for binding affinity to human recombinant Nav1.7 by radioligand binding assay.
Data set [3] is described as follows: Plasma concentration in mouse model of pain at 30 mg/kg, po during tail immersion test. The format is ADME, organism-based. The following applies: in vivo.
The species named for data set [4] is Homo sapiens. Kind of data set: Selectivity ratio of Kd for binding affinity to human recombinant Nav1.5 by radioligand binding assay to Kd for binding affinity to human recombinant Nav1.7 by radioligand binding assay.
Data set [5] in a line: Ratio of unbound plasma concentration in mouse model of inherited erythromelalgia to Kd for binding affinity to recombinant human Nav1.7 by radioligand binding assay. The format is ADME. The following applies: in vivo.
Data set [6] in a line: Ratio of unbound plasma concentration in mouse model of STZ-induced pain measured to Kd for binding affinity to mouse Nav1.7 by radioligand binding assay. The data set is classed as ADME. The following applies: in vivo.
Data set [7] deals with T1, Sodium channel protein type 1 subunit alpha (Homo sapiens, UniProt P35498). Kind of data set: Binding affinity to human recombinant Nav1.1 by radioligand binding assay.
A short description of data set [8]: Ratio of plasma concentration in mouse model of pain at 30 mg/kg, po during tail immersion test to IC50 for inhibition of mouse Nav1.7 expressed in HEK293 cells by electrophysiology assay. The format is organism-based. The following applies: in vivo.
For data set [9], the target named is T2, Sodium channel protein type 4 subunit alpha (Homo sapiens, UniProt P35499). Kind of data set: Binding affinity to human recombinant Nav1.4 by radioligand binding assay.
Data set [10] in a line: Ratio of unbound plasma concentration in mouse model of CFA-induced cold allodynia to Kd for binding affinity to mouse Nav1.7 by radioligand binding assay. The data set is classed as ADME. The following applies: in vivo.
Data set [11] in a line: Ratio of plasma concentration in mouse model of pain at 30 mg/kg, po during hot plate test to IC50 for inhibition of mouse Nav1.7 expressed in HEK293 cells by electrophysiology assay. The data set is classed as organism-based. The following applies: in vivo.
For data set [12], the species on record is Homo sapiens. Kind of data set: Selectivity ratio of Kd for binding affinity to human recombinant Nav1.1 by radioligand binding assay to Kd for binding affinity to human recombinant Nav1.7 by radioligand binding assay.
Data set [13] can be described thus: Plasma concentration in mouse model of pain at 30 mg/kg, po during hot plate test. The format is ADME, organism-based. The following applies: in vivo. In general terms: In hot-plate and tail-flick tests a longer latency is read as antinociception.
The target in data set [14] is T3, Sodium channel protein type 3 subunit alpha (Homo sapiens, UniProt Q9NY46). Kind of data set: Binding affinity to human recombinant Nav1.3 by radioligand binding assay.
The species entered for data set [15] is Homo sapiens. Kind of data set: Selectivity ratio of Kd for binding affinity to human recombinant Nav1.4 by radioligand binding assay to Kd for binding affinity to human recombinant Nav1.7 by radioligand binding assay.
The nature of data set [16]: Ratio of plasma concentration in mouse model of CFA-induced pain at 30 mg/kg, po during Hargreaves test to IC50 for inhibition of mouse Nav1.7 expressed in HEK293 cells by electrophysiology assay. The format is organism-based. The following applies: in vivo.
The target of data set [17] is Sodium channel protein type 9 subunit alpha (Mus musculus, UniProt Q62205). Kind of data set: Binding affinity to mouse Nav1.7 by radioligand binding assay.
The target of data set [18] is T4, Sodium channel protein type 8 subunit alpha (Homo sapiens, UniProt Q9UQD0). Kind of data set: Binding affinity to human recombinant Nav1.6 by radioligand binding assay.
For data set [19], the species on record is Homo sapiens. Kind of data set: Selectivity ratio of Kd for binding affinity to human recombinant Nav1.6 by radioligand binding assay to Kd for binding affinity to human recombinant Nav1.7 by radioligand binding assay.
The species entered for data set [20] is Homo sapiens. Kind of data set: Selectivity ratio of Kd for binding affinity to human recombinant Nav1.3 by radioligand binding assay to Kd for binding affinity to human recombinant Nav1.7 by radioligand binding assay.
Data set [21] addresses T5, Sodium channel protein type 2 subunit alpha (Homo sapiens, UniProt Q99250). Kind of data set: Binding affinity to human recombinant Nav1.2 by radioligand binding assay.
Data set [22] is described as follows: Unbound fraction in mouse plasma. The data set is classed as ADME, cell-free.
In data set [23] the target is Sodium channel protein type 10 subunit alpha (Mus musculus, UniProt Q6QIY3). Kind of data set: Binding affinity to mouse Nav1.8 […] by radioligand binding assay.
Data set [24] in a line: Plasma concentration in mouse model of CFA-induced pain at 30 mg/kg, po during Hargreaves test. The format is ADME, organism-based. The following applies: in vivo.
Data set [25] addresses T6, Sodium channel protein type 5 subunit alpha (Homo sapiens, UniProt Q14524). Kind of data set: Binding affinity to human recombinant Nav1.5 by radioligand binding assay.
For data set [26], the species on record is Homo sapiens. Kind of data set: Selectivity index, ratio of IC50 for inhibition of human Nav1.6 expressed in HEK293 cells by electrophysiology assay to IC50 for inhibition of human Nav1.7 expressed in HEK293 cells by electrophysiology assay. The format is cell-based.
For data set [27], the target named is T1, Sodium channel protein type 1 subunit alpha. Kind of data set: Inhibition of human Nav1.1 expressed in HEK293 cells by electrophysiology assay. The format is cell-based.
The species named for data set [28] is Homo sapiens. Kind of data set: Selectivity index, ratio of IC50 for inhibition of human Nav1.4 expressed in HEK293 cells by electrophysiology assay to IC50 for inhibition of human Nav1.7 expressed in HEK293 cells by electrophysiology assay. The data set is classed as cell-based.
Data set [29] has as its system Rattus norvegicus. Kind of data set: Analgesic activity in po dosed rat model of pain by Hargreaves test. The format is functional.
Data set [30] addresses T6, Sodium channel protein type 5 subunit alpha. Kind of data set: Inhibition of human Nav1.5 expressed in HEK293 cells by electrophysiology assay. The format is cell-based.
The species entered for data set [31] is Homo sapiens. Kind of data set: Selectivity index, ratio of IC50 for inhibition of human Nav1.2 expressed in HEK293 cells by electrophysiology assay to IC50 for inhibition of human Nav1.7 expressed in HEK293 cells by electrophysiology assay. The data set is classed as cell-based.
The target in data set [32] is T4, Sodium channel protein type 8 subunit alpha. Kind of data set: Inhibition of human Nav1.6 expressed in HEK293 cells by electrophysiology assay. The data set is classed as cell-based.
Data set [33] has as its target T2, Sodium channel protein type 4 subunit alpha. Kind of data set: Inhibition of human Nav1.4 expressed in HEK293 cells by electrophysiology assay. The data set is classed as cell-based.
For data set [34], the species on record is Homo sapiens. Kind of data set: Selectivity index, ratio of IC50 for inhibition of human Nav1.1 expressed in HEK293 cells by electrophysiology assay to IC50 for inhibition of human Nav1.7 expressed in HEK293 cells by electrophysiology assay. The format is cell-based.
The target in data set [35] is T5, Sodium channel protein type 2 subunit alpha. Kind of data set: Inhibition of human Nav1.2 expressed in HEK293 cells by electrophysiology assay. The format is cell-based.
Data set [36] relates to Rattus norvegicus. Kind of data set: Analgesic activity in it dosed rat model of pain by hot plate test. The data set is classed as functional.
Data set [37] concerns Rattus norvegicus. Kind of data set: Analgesic activity in it dosed rat model of formalin-induced pain. The format is functional.
The species named for data set [38] is Homo sapiens. Kind of data set: Selectivity index, ratio of IC50 for inhibition of human Nav1.5 expressed in HEK293 cells by electrophysiology assay to IC50 for inhibition of human Nav1.7 expressed in HEK293 cells by electrophysiology assay. The data set is classed as cell-based.
For data set [39], the system named is Rattus norvegicus. Kind of data set: Analgesic activity in it dosed rat model of pain by tail flick test. The format is functional.
The target of data set [40] is Sodium channel protein type 9 subunit alpha (Homo sapiens, UniProt Q15858). Kind of data set: Inhibition of human Nav1.7 expressed in HEK293 cells by electrophysiology assay. The data set is classed as cell-based.
Data set [41] deals with T3, Sodium channel protein type 3 subunit alpha. Kind of data set: Inhibition of human Nav1.3 expressed in HEK293 cells by electrophysiology assay. The format is cell-based.
The subject of data set [42] is Rattus norvegicus. Kind of data set: Analgesic activity in it dosed rat model of CFA-induced pain. The data set is classed as functional.
Data set [43] has as its system Rattus norvegicus. Kind of data set: Analgesic activity in iv dosed rat model of CFA-induced pain. The data set is classed as functional.
Data set [44] relates to Rattus norvegicus. Kind of data set: Analgesic activity in it dosed rat model of CFA-induced pain by Hargreaves test. The data set is classed as functional.

Usually Kd stands for the equilibrium constant for the complex coming apart. One may read the fraction unbound as the share of the substance not bound to proteins or other matrix. Low values mean little free substance, high ones much free substance. The IC50 is the concentration at which inhibition is half-maximal. Lower therefore signals inhibition by little substance.

T6 sequence (Q14524 whole entry): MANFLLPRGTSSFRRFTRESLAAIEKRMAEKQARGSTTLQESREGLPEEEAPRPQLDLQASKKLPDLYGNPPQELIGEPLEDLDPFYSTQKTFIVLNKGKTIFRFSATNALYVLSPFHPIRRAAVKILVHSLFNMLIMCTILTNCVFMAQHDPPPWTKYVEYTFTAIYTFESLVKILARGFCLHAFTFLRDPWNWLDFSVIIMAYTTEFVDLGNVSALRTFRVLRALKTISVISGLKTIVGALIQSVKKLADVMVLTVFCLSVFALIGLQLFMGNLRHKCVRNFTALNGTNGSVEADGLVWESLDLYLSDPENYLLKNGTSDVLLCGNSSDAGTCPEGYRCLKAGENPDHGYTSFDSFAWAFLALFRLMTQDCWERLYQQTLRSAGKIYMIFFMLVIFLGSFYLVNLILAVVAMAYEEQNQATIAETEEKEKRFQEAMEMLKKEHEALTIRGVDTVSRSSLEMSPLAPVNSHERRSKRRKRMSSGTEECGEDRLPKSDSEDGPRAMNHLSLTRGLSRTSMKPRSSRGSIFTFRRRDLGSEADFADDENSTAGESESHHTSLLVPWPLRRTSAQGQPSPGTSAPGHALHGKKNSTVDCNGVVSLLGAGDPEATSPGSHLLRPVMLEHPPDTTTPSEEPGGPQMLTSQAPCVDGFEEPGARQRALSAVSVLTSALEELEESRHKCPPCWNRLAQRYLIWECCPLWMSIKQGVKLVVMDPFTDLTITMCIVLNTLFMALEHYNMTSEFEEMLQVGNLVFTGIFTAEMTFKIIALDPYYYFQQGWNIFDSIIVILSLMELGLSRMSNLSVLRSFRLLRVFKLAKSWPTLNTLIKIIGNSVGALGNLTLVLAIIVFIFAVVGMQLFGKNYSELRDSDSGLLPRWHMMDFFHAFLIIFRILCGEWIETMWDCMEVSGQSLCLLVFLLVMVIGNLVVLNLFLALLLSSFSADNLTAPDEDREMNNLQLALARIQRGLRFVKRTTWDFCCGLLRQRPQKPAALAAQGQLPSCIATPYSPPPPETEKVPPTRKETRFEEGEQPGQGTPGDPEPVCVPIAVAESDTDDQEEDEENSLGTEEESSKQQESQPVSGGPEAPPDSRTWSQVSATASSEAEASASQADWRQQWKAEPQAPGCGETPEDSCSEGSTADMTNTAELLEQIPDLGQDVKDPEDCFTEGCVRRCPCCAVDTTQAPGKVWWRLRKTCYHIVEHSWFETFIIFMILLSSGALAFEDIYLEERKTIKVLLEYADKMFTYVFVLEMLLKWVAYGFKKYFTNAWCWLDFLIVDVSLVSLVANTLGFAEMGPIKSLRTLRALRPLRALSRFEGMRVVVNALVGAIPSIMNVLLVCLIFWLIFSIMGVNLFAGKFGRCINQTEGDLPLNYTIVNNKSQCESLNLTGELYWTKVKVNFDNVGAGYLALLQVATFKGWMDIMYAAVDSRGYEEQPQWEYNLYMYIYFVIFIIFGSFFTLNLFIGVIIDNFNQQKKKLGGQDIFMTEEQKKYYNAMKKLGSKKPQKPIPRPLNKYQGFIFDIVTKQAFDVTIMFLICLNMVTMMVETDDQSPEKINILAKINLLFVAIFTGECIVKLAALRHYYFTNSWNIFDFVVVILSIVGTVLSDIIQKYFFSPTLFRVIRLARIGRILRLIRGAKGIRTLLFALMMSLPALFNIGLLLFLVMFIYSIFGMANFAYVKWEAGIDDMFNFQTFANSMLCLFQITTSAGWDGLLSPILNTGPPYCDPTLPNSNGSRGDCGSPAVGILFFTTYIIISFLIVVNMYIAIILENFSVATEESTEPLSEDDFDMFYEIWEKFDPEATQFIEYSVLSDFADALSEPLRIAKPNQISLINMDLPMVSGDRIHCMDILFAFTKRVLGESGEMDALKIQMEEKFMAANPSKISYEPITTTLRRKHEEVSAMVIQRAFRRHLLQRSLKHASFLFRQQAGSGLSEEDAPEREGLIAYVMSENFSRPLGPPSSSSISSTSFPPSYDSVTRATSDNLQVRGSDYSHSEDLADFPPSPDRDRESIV
T5 sequence (Q99250 whole entry): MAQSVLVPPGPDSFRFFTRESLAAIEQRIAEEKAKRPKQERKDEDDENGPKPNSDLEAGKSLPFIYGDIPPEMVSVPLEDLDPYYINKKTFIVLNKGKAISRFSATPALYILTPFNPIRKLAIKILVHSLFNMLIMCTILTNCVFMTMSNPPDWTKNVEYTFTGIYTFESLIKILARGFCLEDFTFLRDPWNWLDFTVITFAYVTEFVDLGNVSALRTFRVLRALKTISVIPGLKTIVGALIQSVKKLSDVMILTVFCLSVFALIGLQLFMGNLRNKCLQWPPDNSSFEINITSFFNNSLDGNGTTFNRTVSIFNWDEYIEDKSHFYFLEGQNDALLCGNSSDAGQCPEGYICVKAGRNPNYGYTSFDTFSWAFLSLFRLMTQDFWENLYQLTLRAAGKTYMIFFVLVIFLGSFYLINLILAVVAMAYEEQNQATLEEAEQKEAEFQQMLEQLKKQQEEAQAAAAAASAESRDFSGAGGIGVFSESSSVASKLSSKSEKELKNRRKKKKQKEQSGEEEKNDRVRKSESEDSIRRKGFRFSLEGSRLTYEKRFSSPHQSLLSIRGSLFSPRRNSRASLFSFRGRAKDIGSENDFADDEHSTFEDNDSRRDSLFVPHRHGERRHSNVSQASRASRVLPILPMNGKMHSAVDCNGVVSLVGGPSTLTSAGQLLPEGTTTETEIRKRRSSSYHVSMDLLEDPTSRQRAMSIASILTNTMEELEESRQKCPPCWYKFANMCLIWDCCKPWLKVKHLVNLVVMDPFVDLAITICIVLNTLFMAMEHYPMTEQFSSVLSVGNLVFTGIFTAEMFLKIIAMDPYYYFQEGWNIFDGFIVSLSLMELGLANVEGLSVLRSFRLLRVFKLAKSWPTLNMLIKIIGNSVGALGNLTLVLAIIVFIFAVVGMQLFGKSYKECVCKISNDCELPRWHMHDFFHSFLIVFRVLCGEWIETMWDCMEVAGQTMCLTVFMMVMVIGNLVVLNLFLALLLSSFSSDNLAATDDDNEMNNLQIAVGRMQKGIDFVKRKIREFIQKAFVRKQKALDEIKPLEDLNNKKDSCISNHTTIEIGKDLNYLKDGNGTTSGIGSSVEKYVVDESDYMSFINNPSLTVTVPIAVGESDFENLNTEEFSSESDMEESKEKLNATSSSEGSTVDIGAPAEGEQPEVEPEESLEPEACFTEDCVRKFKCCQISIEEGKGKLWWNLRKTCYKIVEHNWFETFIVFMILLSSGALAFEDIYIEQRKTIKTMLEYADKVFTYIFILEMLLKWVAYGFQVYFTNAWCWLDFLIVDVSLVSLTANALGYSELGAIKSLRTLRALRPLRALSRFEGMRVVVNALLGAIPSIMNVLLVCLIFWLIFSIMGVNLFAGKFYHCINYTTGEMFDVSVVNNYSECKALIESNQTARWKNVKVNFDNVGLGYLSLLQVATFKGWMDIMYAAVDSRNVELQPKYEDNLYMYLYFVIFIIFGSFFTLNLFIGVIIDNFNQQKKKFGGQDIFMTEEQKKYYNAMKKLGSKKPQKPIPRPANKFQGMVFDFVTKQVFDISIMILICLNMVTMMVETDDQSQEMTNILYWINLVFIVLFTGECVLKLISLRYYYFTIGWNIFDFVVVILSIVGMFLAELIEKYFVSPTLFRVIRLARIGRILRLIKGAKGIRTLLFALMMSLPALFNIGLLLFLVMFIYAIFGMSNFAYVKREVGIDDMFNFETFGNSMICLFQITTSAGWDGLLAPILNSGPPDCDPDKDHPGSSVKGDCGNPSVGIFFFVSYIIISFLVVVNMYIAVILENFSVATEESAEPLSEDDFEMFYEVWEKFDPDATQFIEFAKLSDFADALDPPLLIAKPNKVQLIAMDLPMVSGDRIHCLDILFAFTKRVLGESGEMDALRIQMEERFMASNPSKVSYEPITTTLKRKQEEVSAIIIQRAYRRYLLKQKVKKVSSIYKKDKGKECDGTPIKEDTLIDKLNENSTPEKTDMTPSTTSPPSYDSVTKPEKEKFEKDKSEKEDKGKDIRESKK

For the molecule `CS(=O)(=O)NC(=O)c1cc(C2CC2)c(OCC2CCN(Cc3cc(C(F)(F)F)ccc3Cl)CC2)cc1F`, the Ratio in data set [1] is 5.5; in data set [5] it was 0.6; in data set [6], 12; in [8], 10; in [10] it was 7.5; in data set [11], 10. In data set [16], the Ratio amounted to 15. Also, the Ratio Ki in the data set filed under Homo sapiens [2] came out at 18; in the data set filed under Homo sapiens [4], 100; in the data set listed under Homo sapiens [12], 40; in the data set listed under Homo sapiens [15], 8; in the data set listed under Homo sapiens [19] it was 60; in the data set listed under Homo sapiens [20] it was 51. Besides, the concentration is 10.5 µM in [3], 10.5 µM in data set [13] and 16.1 µM in data set [24]. Also, the Kd was 140 nM in [7]; 28 nM in data set [9]; 180 nM in [14]; 2.1 nM in data set [17]; 210 nM in [18]; 64 nM in data set [21]. Besides, the Kd in [23] was found to be 13000 nM; in [25] it was 370 nM. In [22], this molecule gave a fraction unbound of 0.002.

With `CSCC[C@@H]1NC(=O)CNC(=O)[C@H](CCC(=O)O)NC(=O)[C@@H]2CSSC[C@H](NC(=O)[C@H](Cc3ccc(O)cc3)NC(=O)[C@H](Cc3ccc(O)cc3)NC(=O)[C@@H]3CCCN3C(=O)CN)C(=O)N[C@@H](CCC(N)=O)C(=O)N[C@@H](CCCCN)C(=O)N[C@@H](Cc3c[nH]c4ccccc34)C(=O)N[C@@H](CCSC)C(=O)N[C@@H](CCC(N)=O)C(=O)N[C@@H]([C@@H](C)O)C(=O)N[C@H]3CSSC[C@H](NC(=O)[C@H](C(C)C)NC1=O)C(=O)N[C@@H](CCCNC(=N)N)C(=O)N[C@@H](CC(C)C)C(=O)N[C@@H](Cc1c[nH]c4ccccc14)C(=O)N[C@H](C(=O)N[C@@H](CCCCN)C(=O)N[C@@H](CCCCN)C(=O)N[C@@H](CCCCN)C(=O)N[C@@H](CC(C)C)C(=O)N[C@@H](CC(C)C)C(=O)O)CSSC[C@H](NC(=O)[C@H](CCCCN)NC(=O)[C@H](CCCNC(=N)N)NC(=O)[C@H](CCC(=O)O)NC(=O)[C@H](CO)NC(=O)[C@H](CC(=O)O)NC3=O)C(=O)N2`, the Ratio IC50 was 100 in the data set filed under Homo sapiens [26]; 530 in the data set filed under Homo sapiens [28]; 160 in the data set filed under Homo sapiens [31]; 1000 in the data set filed under Homo sapiens [34]; > 1000 in the data set listed under Homo sapiens [38]. Besides, the IC50 in data set [27] is 10000 nM; in data set [30], > 10000 nM; in [32], 1000 nM; in data set [33], 5300 nM; in data set [35], 1600 nM; in data set [40], 10 nM. The ED in the data set on Rattus norvegicus [29] is 1.4 mg; in the data set with Rattus norvegicus [36], 0.3 to 7.5 µg; with Rattus norvegicus [37], 1 to 5 µg; with Rattus norvegicus [39] it was 0.3 to 7.5 µg.

For the molecule `CSCC[C@@H]1NC(=O)CNC(=O)[C@H](CCC(=O)O)NC(=O)[C@@H]2CSSC[C@H](NC(=O)[C@@H](N)Cc3ccc(O)cc3)C(=O)N[C@@H](CCC(N)=O)C(=O)N[C@@H](CCCCN)C(=O)N[C@@H](Cc3c[nH]c4ccccc34)C(=O)N[C@@H](CCSC)C(=O)N[C@@H](Cc3c[nH]c4ccccc34)C(=O)N[C@@H]([C@@H](C)O)C(=O)N[C@H]3CSSC[C@H](NC(=O)[C@H](C(C)C)NC1=O)C(=O)N[C@@H](CCCNC(=N)N)C(=O)N[C@@H](CC(C)C)C(=O)N[C@@H](Cc1c[nH]c4ccccc14)C(=O)N[C@H](C(=O)N[C@@H](CCCCN)C(=O)N[C@@H](CCCCN)C(=O)N[C@@H](CCCCN)C(=O)N[C@@H](CC(C)C)C(=O)N[C@@H](Cc1c[nH]c4ccccc14)C(=O)O)CSSC[C@H](NC(=O)[C@H](CCCCN)NC(=O)[C@H](CCCNC(=N)N)NC(=O)[C@H](CCC(=O)O)NC(=O)[C@H](CO)NC(=O)[C@H](CC(=O)O)NC3=O)C(=O)N2`, the IC50 in data set [41] was 25 nM; in data set [27], 16 nM; in [30] it was 400 nM; in data set [32], 32 nM; in data set [33] it was 79 nM; in data set [35], 79 nM. Moreover, the ED was found to be 0.01 mg/kg in the data set on Rattus norvegicus [42], 0.1 mg/kg in the data set on Rattus norvegicus [43], 2 µg in the data set on Rattus norvegicus [44] and 2 µg in the data set with Rattus norvegicus [37].
